According to paper PMC6358775, “Elucidation of Vasodilation Response and Structure Activity Relationships of N^2,N^4-Disubstituted Quinazoline 2,4-Diamines in a Rat Pulmonary Artery Model” (Molecules, 2019):
In brackets after ≈: the same amount, converted by molar mass. Where a name gives a salt, the structure may show the parent alone. Read-outs that look alike come from different tables or passages of the source.

What was measured:
[1] = test system: α1 adrenergic receptor; conditions: α1 adrenergic receptor antagonist; ChEMBL substructure search; cited from earlier work
[2] = test system: Glucose Transporter; design: method as in earlier work; conditions: ChEMBL substructure search; cited from earlier work
[3] = test system: DHFR; conditions: ChEMBL substructure search; cited from earlier work
[4] = test system: endothelium-intact rat pulmonary arterial rings; assay: Vasorelaxation of PE pre-contracted endothelium-intact (E+) pulmonary arterial rings, organ bath; conditions: for Emax / IC50 / EC50: Rattus norvegicus; for IC50: Table S3, endothelium-intact, read-out: E+ Vaso. pIC50 (converted); for EC50: endothelium-intact (E+) rings pre-contracted with 10^-5 M PE, cumulative 0.0001–30 µM, mean (SEM), n = 6, read-out: Vaso E+ EC50 µM (SEM)
[5] = test system: endothelium-denuded rat pulmonary arterial rings; assay: Vasorelaxation of PE pre-contracted endothelium-denuded (E−) pulmonary arterial rings, organ bath; conditions: for IC50: Table S3, endothelium-denuded, read-out: E- Vaso. pIC50 (converted); for EC50: endothelium-denuded (E−) rings pre-contracted with 10^-5 M PE, cumulative 0.0001–30 µM, mean (SEM), n = 6, read-out: Vaso E− EC50 µM (SEM); for Emax: maximal relaxation, endothelium-denuded rings, up to 30 µM, mean ± SEM
[6] = test system: PE-induced contraction of endothelium-denuded pulmonary arterial rings; assay: Inhibition of phenylephrine (PE)-induced contraction in endothelium-denuded arterial rings; design: species or system rat; conditions: 10 µM compound, 15 min pre-incubation, E− rings; for inhibition at 10 µM: Rattus norvegicus, PE 0.0001–100 µM, n = 3–5, read-out: % PE-Contraction Inhibition (SEM); for maximal contraction induced by PE attenuated to: remaining contraction
Method: These experiments were undertaken to assess the pharmacological activity of quinazoline analogues against the structurally related α1 receptor blocker (prazosin). In contrast to previous vasorelaxant experiments, this protocol was developed to determine the inhibitory effect of pre-incubated (15 min) inhibitors (10 µM) on the concentration-dependent vasoconstriction induced by cumulative addition of PE (0.0001–100 µM) in endothelium-denuded pulmonary arterial rings. Figure 5 illustrates the real time contractile response shown by the pulmonary arterial ring upon cumulative addition of PE, which evoked a concentration-dependent vasoconstriction, increasing the vessel’s tension.
After anesthesia with thiopental sodium (100 mg/kg, i.p.) (Anesthal®, Jagsonpsal Pharmaceutical Ltd., Haryana, India), rats were euthanized by exsanguination. Lungs were carefully excised, cleaned by the removal of connective tissue, and placed in cold physiological Krebs’ solution composed of (mM): NaCl 122; KCl 5; N-[2-hydroxyethyl] piperazine-N′-[2-ethane-sulfonic acid] (HEPES) 10; KH2PO4 0.5; NaH2PO4 0.5; MgCl2 1; CaCl2 1.8; and glucose 11 adjusted to pH 7.3 using 1 M NaOH. The pulmonary artery was isolated from the lungs and cut into rings approximately 2 mm in length before mounting in the organ bath chambers. Endothelial cells were mechanically removed in some experiments by gentle rubbing of the inner surface with forceps. Pulmonary arterial rings were mounted on intraluminal wires via stainless steel hooks maintaining the resting tension at 1 g and rings were equilibrated for 30 min before obtaining a stable contraction with 10^−5 M phenylephrine (PE). The rings were immersed in 10 mL baths containing physiological Krebs’ solution at 37 °C, which was continuously bubbled with air. Force transducers were connected with intraluminal wires to measure isometric tension via a Mac Lab A/D converter (Chart V5, A.D. Instruments, Castle Hill, NSW, Australia). The functional integrity of the endothelium in the vessels was confirmed by vasorelaxation of ≥70% with sequential addition of 10^−5 M acetylcholine (ACh) to pre-contracted vessels with 10^−5 M PE. Relaxations ≤30% to 10^−5 M ACh in vessels rubbed mechanically were considered successfully endothelium denuded.
The protocol included the assessment of the inhibitory vasoconstriction effect of quinazoline test compounds on endothelium-denuded arterial rings. Briefly, the arterial rings were treated with the α1-receptor blocker (prazosin) or test compound at a concentration of 10 µM for 15 min before construction of the second concentration response curve with cumulative addition of PE (0.0001–100 µM). The same conditions were used to test the effects of the solvent (DMSO 0.2%). The results were obtained in percentages by comparison of the maximum contraction without treatment with the contraction in the presence of the test compound [24, 36, 37].

[7] = physchem; conditions: for solubility thermodynamic at 6 h: pH 7.4, aqueous buffer, thermodynamic from solid
Method: The solubility of the compounds under investigation here were assessed in phosphate buffer at pH 7.4 using the equilibrium shake-flask method.
An equilibrium shake-flask technique was used to determine the solubility of samples in PBS at pH 7.4. Approximately 1 mg of sample was placed in a 10 mL glass screw top vial and dissolved in 1 mL of 0.02 M PBS at pH 7.4. The solution was sonicated for 1 h, followed by shaking for 6 h (IKA HS 260). The saturated solution was then filtered using a nylon syringe filter. A standard solution of each sample was prepared by dissolving a weighed amount of the sample in 1 mL of DMSO. The concentration of sample dissolved in the PBS solution was determined by comparing the peak area of the PBS and DMSO standard using an Agilent 1100 series HPLC with a Sunshell C8 column (Chromanik Technologies Inc., Osaka, Japan). A 100 µL injection of the aqueous sample and 5 µL of DMSO solution (pre-diluted 100 fold using DMSO) were used.

[8] = test system: A549 cells; assay: MTT cytotoxicity assay in A549 cells; type: cell-based; conditions: Homo sapiens
Method: A 3-[4,5-dimehyl-2-thiazolyl]-2,5-diphenyl-2H-tetrazoliumbromide (MTT) assay was utilized to assess the concentration-response curves for quinazoline analogues as previously reported. A549 cells (ATCC CCL-185, human alveolar basal epithelial cell line) were used to account for the general cytotoxicity of compounds. Cells were cultured in DMEM medium containing fetal bovine serum (FBS; 10%), penicillin (10 U/mL), and streptomycin (100 U/mL). The temperature was maintained at 37 °C with 5% CO2. Cells were seeded for 16–18 h in DMEM and incubated for 72 h with the test compounds. After incubation, MTT (5 mg/mL in normal saline) was added with DMEM and incubated for 3 h. Careful decantation of the medium and addition of DMSO (50 µL) was done. Absorbance values were recorded at 570 nm after 5 min mechanical shaking of the microplate (Sunrise microplate reader, Tecan).
The activity was presented as the inhibitory concentration required to produce a 50% response (IC50). Prism 6.0 GraphPad Software Inc., (San Diego, CA, USA) was utilized for data fitting. 0.5% DMSO was used as the negative control.

[9] = target: PDE-5 (Homo sapiens, UniProt O76074); conditions: cited from earlier work
[10] = test system: Aldehyde dehydrogenase 1A1; design: method as in earlier work; conditions: ChEMBL substructure search; cited from earlier work
[11] = maximal relaxation, endothelium-intact rings, up to 30 µM, mean ± SEM
[12] = A549, MTT, 72 h incubation, read-out: A549 IC50, µM (S.D.)
[13] = Table S3, A549, read-out: Cytox. pIC50 (converted)

SMILES	Emax [4, 11] [%]	IC50 [4] [µM]	EC50 [4] [µM]	IC50 [5] [µM]	EC50 [5] [µM]	Emax [5] [%]	inhibition at 10 µM [6] [%]	Log Sol ([7]; 6 h, pH 7.4)	Sol. pH7.4 (µM) ([7]; 6 h, pH 7.4)	solubility thermodynamic at 6 h [7] [µg/mL]	IC50 [8, 12] [µM]	IC50 [8, 13] [µM]	also measured
COc1cc2nc(N(C)CCCNC(=O)C3CCCO3)nc(N)c2cc1OC (stereo not shown) [Alfuzosin]													Activity [1]: 3 nM
COc1cc2nc(N(C)C3CCN(Cc4ccccc4)CC3)nc(N)c2cc1OC [CHEMBL527902]													Activity [2]: 4.087 µM
COc1cccc2c(NCc3ccccc3)nc(NCCCN3CCCCC3C)nc12 (stereo not shown) [CHEMBL546792]													Activity [2]: 4.102 µM
Cc1ccccc1Nc1nc(Nc2ccccc2)c2ccccc2n1.Cl [CHEMBL582356]													Activity [2]: 4.496 µM
CCOc1ccc2ccccc2c1-c1cc2nc(N)nc(N)c2cc1C [CHEMBL1818128]													Activity [3]: 4.5 nM
c1ccc(CNc2nc(Nc3ccc(N4CCOCC4)cc3)nc3ccccc23)cc1 [Compound 2]	94.7 ± 3.33	5.01	4.98	12	12	85.7 ± 6.05	56.6	-0.22	0.60	250 (≈ 608 µM)	12.1	12	maximal contraction induced by PE attenuated to [6]: 43.38 ± 5.90%
O=C(Nc1ccccc1)Nc1ccc(Nc2nc(NCc3cccs3)c3ccccc3n2)cc1 [Compound 7]	76 ± 5.73	4.07	4.1	> 30	> 30	22.3 ± 4.4	43.6	-0.66	0.22	100 (≈ 214 µM)	2.91	2.88	maximal contraction induced by PE attenuated to [6]: 57.57 ± 5.99%
c1csc(CNc2nc(Nc3ccc(N4CCOCC4)cc3)nc3ccccc23)c1 [Compound 8]	98.8 ± 0.79	0.575	0.58	8.51	8.5	100	42.4	-0.32	0.48	200 (≈ 479 µM)	11.4	11.5	E+ Emax (%) [4, 11]: 98.88 ± 0.79%; maximal contraction induced by PE attenuated to [6]: 56.38 ± 7.10%
NS(=O)(=O)c1cccc(Nc2nc(NCc3ccco3)c3ccccc3n2)c1 [Compound 13]	95.5 ± 2.17	6.61	6.61	3.02	3.02	95.6 ± 2.75	45.9	-0.42	0.38	150 (≈ 379 µM)	26.9	26.9	maximal contraction induced by PE attenuated to [6]: 54.07 ± 11.69%
Clc1cnc(Nc2ccccc2)nc1NCc1ccccc1 [Compound 14]	67.8 ± 5.34	4.47	4.49	10.7	10.7	54.7 ± 6.12		0.51	3.27	1020 (≈ 3280 µM)	> 100	> 100	PDE-5 activity (in words) [9]: borderline PDE-5 inactive
COc1cc2nc(N3CCN(C(=O)c4ccco4)CC3)nc(N)c2cc1OC [PRAZOSIN HYDROCHLORIDE]													Activity [10]: 25 µM
COc1cc2nc(N3CCN(C(=O)c4ccco4)CC3)nc(N)c2cc1OC [Prazosin (PZN), Prazosin HCl, reference compound]							98		1.42	550			Sol. pH7.4 mg/mL ([7]; 6 h, pH 7.4): 0.55 mg/mL; Activity [1]: 1 nM
CCCc1nn(C)c2c(=O)[nH]c(-c3cc(S(=O)(=O)N4CCN(C)CC4)ccc3OCC)nc12 [Sildenafil (SIL), Sildenafil, reference compound]	97.8 ± 2.19		0.14		0.89	85.8 ± 6.41	58.3						Sol. pH7.4 mg/mL ([7]; PBS pH 7.4, shake-flask): 20.83 mg/mL; Sol. pH7.4 (µM) ([7]; PBS pH 7.4, shake-flask, value in brackets): 43.88 µM; solubility thermodynamic at 6 h ([7]; phosphate buffered saline (PBS)): 20800 µg/mL (≈ 43900 µM)
COc1cc(NCc2ccc3nc(N)nc(N)c3c2C)cc(OC)c1OC [Trimetrexate]													Activity [3]: 3 nM
